Laboratory results as given in patent US12350270B2, “Antimalarial agents” (Merck Sharp & Dohme LLC, priority 2019, dated 2025).

These molecules were tested on parasites (ring stage, in human red blood cell culture) (assay: Parasite LDH growth assay (antiparasite potency, Parasite Assay)). Settings: Plasmodium falciparum, Erythrocyte, 72 h, 0.7% rings, 2% haematocrit, 72 hours at 37° C., LDH readout of parasite growth.
Type: cell-based, Plasmodium falciparum
Method in brief: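 Ring-stage parasites at 0.7% parasitemia and 2% haematocrit, in RPMI-Hepes/bicarbonate with 5% heat-inactivated human serum and 0.5% albumax, were added to compound-containing medium. Cultures grew 72 h at 37 °C in gassed humidified boxes. Plates were then frozen overnight at −80 °C, thawed 4 h, and growth was measured by LDH assay.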

SMILES | EC50 [nM]
CCC1(CC)CC(=O)N([C@@H]2CCOc3ccc(C(=O)N[C@H]4c5ccccc5C(F)(F)[C@@H]4O)cc32)C(=N)N1 [Example 197, (4R)-4-(4,4-diethyl-2-imino-6-oxo-hexahydropyrimidin-1-yl)-N-[(1S,2R)-3,3-difluoro-2-hydroxy-indan-1-yl]chromane-6-carboxamide] | 125
CCC1(CC)CC(=O)N([C@@H]2CCOc3ccc(C(=O)N[C@@H]4c5ccccc5C(F)(F)[C@H]4O)cc32)C(=N)N1 [Example 198, (4R)-4-(4,4-diethyl-2-imino-6-oxo-hexahydropyrimidin-1-yl)-N-[(1R,2S)-3,3-difluoro-2-hydroxy-indan-1-yl]chromane-6-carboxamide] | 11.3
CC1(C)CC(=O)N([C@@H]2CC(F)(F)c3ccc(C(=O)N[C@@H]4c5ccccc5OC(C)(C)[C@H]4O)cc32)C(=N)N1 [Example 199, (3R)-1,1-difluoro-N-[(3S,4R)-3-hydroxy-2,2-dimethyl-chroman-4-yl]-3-(2-imino-4,4-dimethyl-6-oxo-hexahydropyrimidin-1-yl)indane-5-carboxamide] | 1.1
CCC1(CC)CC(=O)N([C@@H]2CCOc3ccc(C(=O)NC(c4ccccc4)C4CCCCC4)cc32)C(=N)N1 (stereo partly drawn) [Example 200, (4R)-N-[cyclohexyl(phenyl)methyl]-4-(4,4-diethyl-2-imino-6-oxo-hexahydropyrimidin-1-yl)chromane-6-carboxamide] | 2.9
CCC1(CC)CC(=O)N([C@@H]2CCCc3ccc(C(=O)N[C@@H]4c5ccccc5OC(C)(C)[C@H]4O)cc32)C(=N)N1 [Example 201, (4R)-4-(4,4-diethyl-2-imino-6-oxo-hexahydropyrimidin-1-yl)-N-[(3S,4R)-3-hydroxy-2,2-dimethyl-chroman-4-yl]tetralin-6-carboxamide] | 1.4
CC[C@]1(C)CC(=O)N([C@H]2c3cc(C(=O)N[C@@H]4c5ccccc5C[C@@]4(C)O)ccc3OC[C@@H]2COC)C(=N)N1 [Example 202, (3S,4R)-4-[(4R)-4-ethyl-2-imino-4-methyl-6-oxo-hexahydropyrimidin-1-yl]-N-[(1R,2R)-2-hydroxy-2-methyl-indan-1-yl]-3-(methoxymethyl)chromane-6-carboxamide] | 0.8
CCC1(CC)CC(=O)N([C@H]2C[C@@H](OC)c3ccc(C(=O)N[C@@H]4c5ccccc5OC[C@@]4(C)O)cc32)C(=N)N1 [Example 204, (1R,3S)-3-(4,4-diethyl-2-imino-6-oxo-hexahydropyrimidin-1-yl)-N-[(3S,4R)-3-hydroxy-3-methyl-chroman-4-yl]-1-methoxy-indane-5-carboxamide] | 247
CCC1(CC)CC(=O)N([C@@H]2C[C@H](OC)c3ccc(C(=O)N[C@@H]4c5ccccc5OC[C@@]4(C)O)cc32)C(=N)N1 [Example 205, (1S,3R)-3-(4,4-diethyl-2-imino-6-oxo-hexahydropyrimidin-1-yl)-N-[(3S,4R)-3-hydroxy-3-methyl-chroman-4-yl]-1-methoxy-indane-5-carboxamide] | 2.1
COCC1(C)CC(N2C(=N)NC(C)(C)CC2=O)c2cc(C(=O)N[C@@H]3c4ccccc4C[C@]3(C)O)ccc2O1 (stereo partly drawn) [Example 206, N-[(1R,2S)-2-hydroxy-2-methyl-indan-1-yl]-4-(2-imino-4,4-dimethyl-6-oxo-hexahydropyrimidin-1-yl)-2-(methoxymethyl)-2-methyl-chromane-6-carboxamide] | 66
CCC1(CC)CC(=O)N(C2c3cc(C(=O)N[C@H]4CC(C)(C)Oc5ccccc54)ccc3OCC2O)C(=N)N1 (stereo partly drawn) [Example 207, 4-(4,4-diethyl-2-imino-6-oxo-hexahydropyrimidin-1-yl)-N-[(4S)-2,2-dimethylchroman-4-yl]-3-hydroxy-chromane-6-carboxamide] | 22
CCC1(CC)CC(=O)N(C2c3cc(C(=O)N[C@@H]4c5ccccc5C[C@H]4O)ccc3OCC2(C)OC)C(=N)N1 (stereo partly drawn) [Example 208, 4-(4,4-diethyl-2-imino-6-oxo-hexahydropyrimidin-1-yl)-N-[(1R,2R)-2-hydroxyindan-1-yl]-3-methoxy-3-methyl-chromane-6-carboxamide] | 3.7
CCC1(CC)CC(=O)N(C2CC(C)Oc3ccc(C(=O)N[C@@H]4c5ccccc5OC[C@@]4(C)O)cc32)C(=N)N1 (stereo partly drawn) [Example 209, 4-(4,4-diethyl-2-imino-6-oxo-hexahydropyrimidin-1-yl)-N-[(3S,4R)-3-hydroxy-3-methyl-chroman-4-yl]-2-methyl-chromane-6-carboxamide] | 7.9
CC[C@]1(C)CC(=O)N(C2CC(C)Oc3ccc(C(=O)N[C@@H]4c5ccccc5OC(C)(C)[C@H]4O)cc32)C(=N)N1 (stereo partly drawn) [Example 210, 4-[(4R)-4-ethyl-2-imino-4-methyl-6-oxo-hexahydropyrimidin-1-yl]-N-[(3S,4R)-3-hydroxy-2,2-dimethyl-chroman-4-yl]-2-methyl-chromane-6-carboxamide] | 195
CCC1(CC)CC(=O)N([C@@H]2CCCOc3ccc(C(=O)N[C@@H]4c5ccccc5OC[C@@]4(C)O)cc32)C(=N)N1 [Example 211, (5R)-5-(4,4-diethyl-2-imino-6-oxo-hexahydropyrimidin-1-yl)-N-[(3S,4R)-3-hydroxy-3-methyl-chroman-4-yl]-2,3,4,5-tetrahydro-1-benzoxepine-7-carboxamide] | 8.9
CCC1(CC)CC(=O)N(C2c3cc(C(=O)N[C@@H]4c5ccccc5C[C@@]4(C)O)ccc3OCC2OC)C(=N)N1 (stereo partly drawn) [Example 212, 4-(4,4-diethyl-2-imino-6-oxo-hexahydropyrimidin-1-yl)-N-[(1R,2R)-2-hydroxy-2-methyl-indan-1-yl]-3-methoxy-chromane-6-carboxamide] | 6.5
CCC1(CC)CC(=O)N(C2c3cc(C(=O)N[C@@H]4c5ccccc5C[C@]4(C)O)ccc3OCC2OC)C(=N)N1 (stereo partly drawn) [Example 213, 4-(4,4-diethyl-2-imino-6-oxo-hexahydropyrimidin-1-yl)-N-[(1R,2S)-2-hydroxy-2-methyl-indan-1-yl]-3-methoxy-chromane-6-carboxamide] | 9
CCC1(CC)CC(=O)N([C@H]2c3cc(C(=O)N[C@@H]4c5ccccc5C[C@H]4O)ccc3OC[C@H]2COC)C(=N)N1 [Example 215, (3R,4R)-4-(4,4-diethyl-2-imino-6-oxo-hexahydropyrimidin-1-yl)-N-[(1R,2R)-2-hydroxyindan-1-yl]-3-(methoxymethyl)chromane-6-carboxamide] | 4.2
CCC1(CC)CC(=O)N([C@H]2c3cc(C(=O)N[C@@H]4c5ccccc5C[C@H]4O)ccc3OC[C@@H]2COC)C(=N)N1 [Example 216, (3S,4R)-4-(4,4-diethyl-2-imino-6-oxo-hexahydropyrimidin-1-yl)-N-[(1R,2R)-2-hydroxyindan-1-yl]-3-(methoxymethyl)chromane-6-carboxamide] | 2.7
COC1COc2ccc(C(=O)N[C@@H]3c4ccccc4OC(C)(C)[C@H]3O)cc2C1N1C(=N)NC(C)(C)CC1=O (stereo partly drawn) [Example 217, N-[(3S,4R)-3-hydroxy-2,2-dimethyl-chroman-4-yl]-4-(2-imino-4,4-dimethyl-6-oxo-hexahydropyrimidin-1-yl)-3-methoxy-chromane-6-carboxamide] | 4.9
CC[C@]1(C)CC(=O)N(C2c3cc(C(=O)N[C@@H]4c5ccccc5OC[C@@]4(C)O)ccc3OCC2OC)C(=N)N1 (stereo partly drawn) [Example 218, 4-[(4R)-4-ethyl-2-imino-4-methyl-6-oxo-hexahydropyrimidin-1-yl]-N-[(3S,4R)-3-hydroxy-3-methyl-chroman-4-yl]-3-methoxy-chromane-6-carboxamide] | 64
